Experimental data as given in US20230271954A1 (Gossamer Bio Services, Inc., priority 2020, published 2023).

How the values were obtained:
DGKα = DGKα (Homo sapiens, UniProt P23743); test: DGKα biochemical assay (ADP-Glo); conditions: read-out: DGK α IC50
How it was run: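 ADP-Glo kinase assay using OAG/PS (1:2) lipid substrate, sonicated, in HEPES pH 7.0 buffer with MgCl2, CaCl2, DTT, BSA, Triton X-100. Enzyme preincubated with compound 30 min at RT; substrate with ATP (DGKα: 400 μM) added, 45 min RT. Luminescence read; % inhibition vs DMSO and no-enzyme controls.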

DGKζ = molecular target: T1, DGKζ (Homo sapiens, UniProt Q13574); test: DGKζ biochemical assay (ADP-Glo); conditions: read-out: DGK ζ IC50
T1 construct: purchased Carna 12-110
T1 sequence (Q13574 1-929 isoform Q13574-4): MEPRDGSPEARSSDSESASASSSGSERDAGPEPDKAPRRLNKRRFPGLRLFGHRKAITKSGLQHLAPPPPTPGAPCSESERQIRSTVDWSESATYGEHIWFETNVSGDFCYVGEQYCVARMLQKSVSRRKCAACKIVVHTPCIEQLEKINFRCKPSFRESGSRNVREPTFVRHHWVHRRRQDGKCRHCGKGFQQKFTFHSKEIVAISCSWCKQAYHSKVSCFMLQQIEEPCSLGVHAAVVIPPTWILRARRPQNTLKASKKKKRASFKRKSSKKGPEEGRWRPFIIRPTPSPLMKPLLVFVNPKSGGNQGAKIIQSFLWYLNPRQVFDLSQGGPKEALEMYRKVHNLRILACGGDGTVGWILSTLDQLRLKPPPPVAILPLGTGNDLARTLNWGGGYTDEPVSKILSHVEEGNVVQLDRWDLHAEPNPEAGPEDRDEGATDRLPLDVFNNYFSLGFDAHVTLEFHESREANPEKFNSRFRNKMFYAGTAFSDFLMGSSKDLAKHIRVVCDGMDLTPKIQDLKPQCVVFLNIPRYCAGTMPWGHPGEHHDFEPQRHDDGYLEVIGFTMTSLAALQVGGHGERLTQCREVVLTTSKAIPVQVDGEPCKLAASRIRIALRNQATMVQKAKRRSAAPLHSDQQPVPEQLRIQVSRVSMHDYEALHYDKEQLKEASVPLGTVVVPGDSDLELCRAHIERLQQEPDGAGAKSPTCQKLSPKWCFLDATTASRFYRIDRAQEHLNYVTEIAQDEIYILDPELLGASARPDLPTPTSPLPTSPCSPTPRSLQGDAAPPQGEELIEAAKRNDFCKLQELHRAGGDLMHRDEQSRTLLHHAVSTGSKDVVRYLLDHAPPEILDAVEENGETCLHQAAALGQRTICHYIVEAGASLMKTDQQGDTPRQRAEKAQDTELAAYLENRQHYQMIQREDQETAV

Chain of DGKα (P23743 whole entry): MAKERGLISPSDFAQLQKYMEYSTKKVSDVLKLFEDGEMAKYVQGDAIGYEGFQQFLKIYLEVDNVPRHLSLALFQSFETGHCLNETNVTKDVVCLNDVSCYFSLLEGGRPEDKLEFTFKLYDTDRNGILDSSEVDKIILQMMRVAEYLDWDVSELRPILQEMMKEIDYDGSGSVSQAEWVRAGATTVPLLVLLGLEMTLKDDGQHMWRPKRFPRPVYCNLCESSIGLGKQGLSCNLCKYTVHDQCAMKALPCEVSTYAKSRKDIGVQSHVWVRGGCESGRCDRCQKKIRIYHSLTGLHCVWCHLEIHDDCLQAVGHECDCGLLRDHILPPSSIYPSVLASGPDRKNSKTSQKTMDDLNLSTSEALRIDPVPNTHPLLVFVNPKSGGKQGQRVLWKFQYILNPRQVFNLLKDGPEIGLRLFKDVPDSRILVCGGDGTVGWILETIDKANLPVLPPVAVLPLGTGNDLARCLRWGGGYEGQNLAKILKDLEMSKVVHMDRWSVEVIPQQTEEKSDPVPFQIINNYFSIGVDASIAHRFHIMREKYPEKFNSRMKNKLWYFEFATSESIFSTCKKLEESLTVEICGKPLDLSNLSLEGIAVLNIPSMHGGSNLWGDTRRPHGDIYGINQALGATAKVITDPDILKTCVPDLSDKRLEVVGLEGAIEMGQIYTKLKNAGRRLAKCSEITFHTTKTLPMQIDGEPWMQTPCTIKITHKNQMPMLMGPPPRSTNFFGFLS

SMILES | IC50 (DGKα) | IC50 (DGKζ)
Cc1cc2c(cc1N(CC1CCC1)[C@H]1CC[C@@H](N(C)c3c(C#N)c(=O)n(C)c4ccc(C#N)nc34)CC1)OCO2 [Example 152, cis-8-((4-((cyclobutylmethyl)(6-methylbenzo[d][1,3]dioxol-5-yl)amino)cyclohexyl)(methyl)amino)-5-methyl-6-oxo-5,6-dihydro-1,5-naphthyridine-2,7-dicarbonitrile] | ≥ 1000 nM | ≥ 1000 nM
Cn1c(=O)c(C#N)c(N(C)[C@H]2CC[C@H](N(c3ccc(F)cc3)C3CCC3)CC2)c2nc(C#N)ccc21 [Example 19] | 100 to 1000 nM | 100 to 1000 nM
Cn1c(=O)cc(N(C)[C@H]2CC[C@@H](N(Cc3ccccc3)CC3CC3)CC2)c2nc(C#N)ccc21 [Example 214, cis-8-((-4-(benzyl(cyclopropylmethyl)amino)cyclohexyl)(methyl)amino)-5-methyl-6-oxo-5,6-dihydro-1,5-naphthyridine-2-carbonitrile] | ≥ 1000 nM | ≥ 1000 nM
COc1cc(F)ccc1N(CC1CC1)[C@H]1CC[C@@H](N(C)c2c(C#N)c(=O)n(C)c3ccc(C#N)nc23)CC1 [Example 31, cis-8-((4-((cyclopropylmethyl)(4-fluoro-2-methoxyphenyl)amino)cyclohexyl)(methyl)amino)-5-methyl-6-oxo-5,6-dihydro-1,5-naphthyridine-2,7-dicarbonitrile] | 100 to 1000 nM | 100 to 1000 nM
Cn1c(=O)c(C#N)c(N(C)[C@H]2CC[C@@H](N(c3ccc(F)cc3F)C3CC3)CC2)c2nc(Cl)ccc21 [Example 3CC, cis-6-Chloro-4-[[4-(N-cyclopropyl-2,4-difluoro-anilino)cyclohexyl]-methyl-amino]-1-methyl-2-oxo-1,5-naphthyridine-3-carbonitrile] | 100 to 1000 nM | ≥ 1000 nM
COc1ccc(N(C2CC2)[C@H]2CC[C@H](N(C)c3c(C#N)c(=O)n(C)c4ccc(Cl)nc34)CC2)nc1 [Example 3J, trans-6-chloro-4-((4-(cyclopropyl(5-methoxypyridin-2-yl)amino)cyclohexyl)(methyl)amino)-1-methyl-2-oxo-1,2-dihydro-1,5-naphthyridine-3-carbonitrile] | 10 to 100 nM | 100 to 1000 nM
Cc1cc(F)cc(N(CC2CCC2)[C@H]2CC[C@H](N(C)c3c(C#N)c(=O)n(C)c4ccc(C#N)nc34)CC2)c1 [Example 94] | 100 to 1000 nM | 100 to 1000 nM
Cn1c(=O)c(C#N)c(N(C)[C@H]2CC[C@H](N(CC3CCC3)c3ccc(F)cc3C(F)F)CC2)c2nc(C#N)ccc21 [Example 179, trans-8-((-4-((cyclobutylmethyl)(2-(difluoromethyl)-4-fluorophenyl)amino)cyclohexyl)(methyl)amino)-5-methyl-6-oxo-5,6-dihydro-1,5-naphthyridine-2,7-dicarbonitrile] | 10 to 100 nM | ≥ 1000 nM
COc1cc(F)ccc1N(C)[C@H]1CC[C@H](N(C)c2c(C#N)c(=O)n(C)c3ccc(Cl)nc23)CC1 [Example 40, trans-6-chloro-4-((4-((4-fluoro-2-methoxyphenyl) (methyl)amino)cyclohexyl)(methyl)amino)-1-methyl-2-oxo-1,2-dihydro-1,5-naphthyridine-3-carbonitrile] | 10 to 100 nM | ≥ 1000 nM
Cn1c(=O)c(C#N)c(N(C)[C@H]2CC[C@H](N(CC3CC3)c3ccc(F)cc3)CC2)c2nc(C#N)ccc21 [Example 54, trans-8-((4-((cyclopropylmethyl)(4-fluorophenyl)amino)cyclohexyl)(methyl)amino)-5-methyl-6-oxo-5,6-dihydro-1,5-naphthyridine-2,7-dicarbonitrile] | 100 to 1000 nM | 100 to 1000 nM
Cn1c(=O)c(C#N)c(N(C)[C@H]2CC[C@H](N(CC3COCCO3)c3ccc(F)cc3)CC2)c2nc(C#N)ccc21 (stereo partly drawn) [Example 149, trans-8-((-4-(((1,4-dioxan-2-yl)methyl)(4-fluorophenyl)amino)cyclohexyl)(methyl)amino)-5-methyl-6-oxo-5,6-dihydro-1,5-naphthyridine-2,7-dicarbonitrile] | 100 to 1000 nM | 100 to 1000 nM

The remaining lines, values ahead:

IC50 (DGKα) | IC50 (DGKζ) | SMILES
100 to 1000 nM | 10 to 100 nM | Cc1cc(F)ncc1N(CC1CCC1)[C@H]1CC[C@H](N(C)c2c(C#N)c(=O)n(C)c3ccc(C#N)nc23)CC1 [Example 140, trans-8-((-4-((cyclobutylmethyl)(6-fluoro-4-methylpyridin-3-yl)amino)cyclohexyl)(methyl)amino)-5-methyl-6-oxo-5,6-dihydro-1,5-naphthyridine-2,7-dicarbonitrile]
< 10 nM | 10 to 100 nM | Cc1ccc(N(CC2CCC2)[C@H]2CC[C@@H](N(C)c3c(C#N)c(=O)n(C)c4ccc(C#N)nc34)CC2)cc1 [Example 99]
≥ 1000 nM | 100 to 1000 nM | Cc1cc(F)ccc1N(C[C@@H]1CCCO1)[C@H]1CC[C@H](N(C)c2c(C#N)c(=O)n(C)c3ccc(C#N)nc23)CC1 [Example 168, trans-8-((-4-((4-fluoro-2-methylphenyl)(((S)-tetrahydrofuran-2-yl)methyl)amino)cyclohexyl) (methyl)amino)-5-methyl-6-oxo-5,6-dihydro-1,5-naphthyridine-2,7-dicarbonitrile]
100 to 1000 nM | 10 to 100 nM | Cc1cc2c(cc1N(CC1CCC1)[C@H]1CC[C@@H](N(C)c3cc(=O)n(C)c4ccc(C#N)nc34)CC1)OCO2 [Example 150, cis-8-((4-((cyclobutylmethyl)(6-methylbenzo[d][1,3]dioxol-5-yl)amino)cyclohexyl)(methyl)amino)-5-methyl-6-oxo-5,6-dihydro-1,5-naphthyridine-2-carbonitrile]
≥ 1000 nM | ≥ 1000 nM | CN1CCN(Cc2ccc(N(CC3CC3)C3CCC(N(C)c4c(C#N)c(=O)n(C)c5ccc(C#N)nc45)CC3)cc2)CC1 (single isomer, unassigned) [Example 199, (cis or trans)-8-((4-((cyclopropylmethyl)(4-((4-methylpiperazin-1-yl)methyl)phenyl)amino)cyclohexyl)(methyl)amino)-5-methyl-6-oxo-5,6-dihydro-1,5-naphthyridine-2,7-dicarbonitrile]
≥ 1000 nM | ≥ 1000 nM | COc1cc(N(CC2CC2)[C@H]2CC[C@H](N(C)c3cc(=O)n(C)c4ccc(C#N)nc34)CC2)ccc1F [Example 36, trans-8-((4-((cyclopropylmethyl)(4-fluoro-3-methoxyphenyl)amino)cyclohexyl)(methyl)amino)-5-methyl-6-oxo-5,6-dihydro-1,5-naphthyridine-2-carbonitrile]
10 to 100 nM | 10 to 100 nM | Cn1c(=O)c(C#N)c(N(C)[C@H]2CC[C@@H](N(CC3CCOC3)c3ccc(F)c(OC(F)F)c3)CC2)c2nc(C#N)ccc21 (stereo partly drawn) [Example 158, cis-8-((-4-((3-(difluoromethoxy)-4-fluorophenyl) ((tetrahydrofuran-3-yl)methyl)amino)cyclohexyl) (methyl)amino)-5-methyl-6-oxo-5,6-dihydro-1,5-naphthyridine-2,7-dicarbonitrile]
≥ 1000 nM | ≥ 1000 nM | Cn1c(=O)cc(N(C)[C@H]2CC[C@H](N(CC3CC3)c3cc(F)cc(F)c3)CC2)c2nc(C#N)ccc21 [Example 90]
